Source: patent US8354381B2, “Peptide compositions for oral care systems” (E I du Pont de Nemours and Company, priority 2009, dated 2013)
Where no end group is shown, it is not given here. The star is where a group is joined. Biotin = O=C1N[C@H]2[C@H](CS[C@H]2CCCCC(=O)*)N1

Experiment: Peptide-mediated adhesion of streptavidin-coated gold particles on enamel, SEM
Format: binding, bovine
Conditions: 20 μM peptide, then 50 nm streptavidin gold nanoparticles; SEM at 10000X
Protocol: Bovine enamel incisors were obtained from SE Dental (Baton Rouge, La.). Teeth are sectioned and cut into enamel slabs approx. 5 mm on each side using a DREMEL® saw with a diamond blade. The enamel blocks are cleaned and place each in a plastic microcentrifuge tube.
Each enamel block was incubated for 45 min in phosphate buffered saline with 0.1% TWEEN® 20 (PBST) and 1 mg/mL bovine serum albumin (BSA) at room temperature (22° C.). All blocks were rinsed with PBST twice while vortexing in the microcentrifuge tube. The peptides were first diluted to 10 mM in water and then a working concentration of 20 μM was prepared in PBST with 1 mg/mL BSA. Each sample was exposed to the peptide solution or a no peptide buffer control for 30 min at room temperature. The samples were slowly rotated during incubation. The enamel blocks were removed from the peptide solution and washed four times with PBST with vortexing.
50 nm gold nanoparticles functionalized with streptavidin were obtained from Nanocs Inc (New York, N.Y.) and diluted to 0.006% wt in PBST with 1 mg/mL BSA. All enamel samples were then exposed to the gold nanoparticle solution for 1 hr at room temperature with slow rotation. […]
Each enamel sample was examined with Electron Microscopy. […] Particles were counted per micrograph and the density of particle coverage was compared (Table 14).

Row | Substance | Particles per μm^2 at 10000X [Particles per μm^2]
1 | TTYHYKNIYQESYQQRNPAVK(Biotin) [DenP03-C] | 1.75
2 | TTYHYKNIYQESYQQRNPAVHHHHHH [DenP03-D] | 0.23
